Experimental data: patent US7276502B2, “Thiazoles useful as inhibitors of protein kinases” (Vertex Pharmaceuticals Incorporated, priority 2003, dated 2007)
Like-named read-outs stand apart in the source and are kept apart here.

Tests used:
SYK = SYK (Homo sapiens, UniProt P43405); experiment: SYK inhibition assay (standard coupled enzyme assay); format: biochemical
Method: Reactions were carried out in 100 mM HEPES (pH 7.5), 10 mM MgCl2, 25 mM NaCl, 1 mM DTT and 1.5% DMSO. Final substrate concentrations in the assay were 200 μM ATP (Sigma chemical Co.) and 4 μM poly Gly-Tyr peptide (Sigma Chemical Co.). Assays were carried out at 30° C. and 200 nM SYK. Final concentrations of the components of the coupled enzyme system were 2.5 mM phosphoenolpyruvate, 300 μM NADH, 30 μg/ml pyruvate kinase and 10 μg/ml lactate dehydrogenase.
An assay stock buffer solution was prepared containing all of the reagents listed above, with the exception of SYK, DTT, and the test compound of interest of the present invention. 56 μl of the test reaction was placed in a 96 well plate followed by the addition of 1 μl of 2 mM DMSO stock containing the test compound of the present invnetion (final compound concentration 30 μM).

ZAP-70 = target: T1, ZAP-70 (Homo sapiens, UniProt P43403); experiment: ZAP-70 inhibition assay (standard coupled enzyme assay); format: biochemical; conditions: 100 μM ATP, 20 μM poly-4EY peptide, 30° C., 60 nM ZAP-70
T1 sequence (P43403 1-619): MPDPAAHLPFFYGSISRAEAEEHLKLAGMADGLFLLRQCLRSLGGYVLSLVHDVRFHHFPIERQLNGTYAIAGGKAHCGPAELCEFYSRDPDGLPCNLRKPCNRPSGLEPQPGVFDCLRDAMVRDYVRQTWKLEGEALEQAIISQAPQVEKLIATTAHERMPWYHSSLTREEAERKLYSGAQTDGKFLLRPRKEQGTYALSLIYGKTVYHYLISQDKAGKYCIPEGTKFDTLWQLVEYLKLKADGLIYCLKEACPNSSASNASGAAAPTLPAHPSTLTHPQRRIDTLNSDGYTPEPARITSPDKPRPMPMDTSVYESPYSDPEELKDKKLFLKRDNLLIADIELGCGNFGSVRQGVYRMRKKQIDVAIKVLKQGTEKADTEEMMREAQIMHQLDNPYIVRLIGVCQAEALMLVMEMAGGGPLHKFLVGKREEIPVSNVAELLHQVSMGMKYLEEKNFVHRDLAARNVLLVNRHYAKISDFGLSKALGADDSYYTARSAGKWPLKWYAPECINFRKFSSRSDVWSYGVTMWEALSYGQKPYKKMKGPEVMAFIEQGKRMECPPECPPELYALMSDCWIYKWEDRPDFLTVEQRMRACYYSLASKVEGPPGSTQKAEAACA
Method: Compounds were screened for their ability to inhibit ZAP-70 using a standard coupled enzyme assay (Fox et al., Protein Sci. 1998, 7, 2249). Assays were carried out in a mixture of 100 mM HEPES (pH 7.5), 10 mM MgCl2, 25 mM NaCl, 2 mM DTT and 3% DMSO. Final substrate concentrations in the assay were 100 μM ATP (Sigma Chemicals) and 20 μM peptide (poly-4EY, Sigma Chemicals). Assays were carried out at 30° C. and 60 nM ZAP-70. Final concentrations of the components of the coupled enzyme system were 2.5 mM phosphoenolpyruvate, 300 μM NADH, 30 μg/ml pyruvate kinase and 10 μg/ml lactate dehydrogenase.
An assay stock buffer solution was prepared containing all of the reagents listed above, with the exception of ZAP-70 and the test compound of interest of the present invention. 55 μl of the stock solution was placed in a 96 well plate followed by addition of 2 μl of DMSO stock containing serial dilutions of the test compound of the present invention (typically starting from a final concentration of 15 μM). The plate was preincubated for 10 minutes at 30° C. and the reaction initiated by addition of 10 μl of enzyme (final concentration 60 nM). Initial reaction rates were determined with a Molecular Devices SpectraMax Plus plate reader over a 15 minute time course. Ki data was calculated from non-linear regression analysis using the Prism software package (GraphPad Prism version 3.0a for Macintosh, GraphPad Software, San Diego Calif., USA).

[1] = coupled enzyme assay, 200 μM ATP, 4 μM poly Gly-Tyr peptide, 30° C., read-out: Ki (SYK)

Row | SMILES | Ki (SYK; [1]) [µM] | Ki (ZAP-70) [µM] | Ki (SYK) [µM]
1 | COc1cc(Nc2nccc(-c3ncc(C)s3)n2)cc(OC)c1OC [Example I-122] | ≤ 5 | ≤ 5 | 
2 | Cc1cc(C)cc(Nc2nccc(-c3nc(C)c(CCO)s3)n2)c1 [Example I-123] |  | ≤ 5 | ≤ 5
3 | Cc1cc(C)cc(Nc2nccc(-c3ncc(CNc4cccnc4)s3)n2)c1 [Example I-124] | ≤ 5 | ≤ 5 | 
4 | Cc1cc(C)cc(Nc2nccc(-c3ncc(CNc4ccncc4)s3)n2)c1 [Example I-125] | ≤ 5 | ≤ 5 | 
5 | Cc1cnc(-c2ccnc(Nc3ccc4c(c3)OCCO4)n2)s1 [Example I-127] | ≤ 5 | ≤ 5 | 
6 | Cc1cnc(-c2ccnc(Nc3ccc4[nH]nnc4c3)n2)s1 [Example I-128] | ≤ 5 | ≤ 5 | 
7 | CSc1cccc(Nc2nccc(-c3ncc(C)s3)n2)c1 [Example I-130] | ≤ 5 | ≤ 5 | 
8 | CSc1ccc(Nc2nccc(-c3ncc(C)s3)n2)cc1 [Example I-131] | ≤ 5 | ≤ 5 | 
9 | Cc1cc(C)cc(Nc2nccc(-c3ncc(C(=O)N4CCNCC4)s3)n2)c1 [Example I-134] | ≤ 5 | ≤ 5 | 
10 | Cc1cnc(-c2ccnc(Nc3ccc4ncsc4c3)n2)s1 [Example I-135] | ≤ 5 | ≤ 5 | 
11 | Cc1cnc(-c2ccnc(Nc3ccc4[nH]nc(C)c4c3)n2)s1 [Example I-136] | ≤ 5 | ≤ 5 | 
12 | Cc1cc(C)cc(Nc2nccc(-c3ncc(C(=O)Nc4ccccc4)s3)n2)c1 [Example I-137] | ≤ 5 | ≤ 5 | 
13 | Cc1cc(C)cc(Nc2nccc(-c3ncc(C(=O)NCCN)s3)n2)c1 [Example I-138] | ≤ 5 | ≤ 5 | 
14 | Cc1cnc(-c2ccnc(Nc3ccc(N)cc3)n2)s1 [Example I-140] | ≤ 5 | ≤ 5 | 
15 | Cc1cc(C)cc(Nc2nccc(-c3ncc(CNc4ccccc4)s3)n2)c1 [Example I-141] | ≤ 5 | ≤ 5 | 
16 | Cc1cc(C)cc(Nc2nccc(-c3ncc(NCCN)s3)n2)c1 [Example I-142] | ≤ 5 | ≤ 5 | 
17 | COc1cc(Nc2nccc(-c3ncc(Cl)s3)n2)cc(OC)c1OC [Example I-143] | ≤ 5 | ≤ 5 | 
18 | OCc1cnc(-c2ccnc(Nc3cc(O)cc(C(F)(F)F)c3)n2)s1 [Example I-144] | ≤ 5 | ≤ 5 | 
19 | COc1cc(Nc2nccc(-c3ncc(N4CCNCC4)s3)n2)cc(OC)c1OC [Example I-145] | ≤ 5 | ≤ 5 | 
20 | OCc1csc(-c2ccnc(Nc3cc(O)cc(C(F)(F)F)c3)n2)n1 [Example I-146] |  | ≤ 5 | ≤ 5
21 | CC(=O)OCc1cnc(-c2ccnc(Nc3ccccc3OCc3ccccc3)n2)s1 [Example I-149] | ≤ 5 | ≤ 5 | 
22 | OCc1cnc(-c2ccnc(Nc3ccccc3OCc3ccccc3)n2)s1 [Example I-150] | ≤ 5 | ≤ 5 | 
23 | Cc1cnc(-c2ccnc(Nc3ccncc3)n2)s1 [Example I-152] | ≤ 5 | ≤ 5 | 
24 | Cc1cnc(-c2ccnc(Nc3ccc(NC(=O)CCNC(=O)OC(C)(C)C)cc3)n2)s1 [Example I-153] | ≤ 5 | ≤ 5 | 

Second part, the molecule after the results:

Row | Ki (SYK; [1]) [µM] | Ki (ZAP-70) [µM] | Ki (SYK) [µM] | SMILES
25 | ≤ 5 | ≤ 5 |  | Cc1cc(C)cc(Nc2nccc(-c3nc(COC(N)=O)cs3)n2)c1 [Example I-77]
26 | ≤ 5 | ≤ 5 |  | CC(=O)Nc1cccc(Nc2nccc(-c3ncc(C)s3)n2)c1 [Example I-78]
27 | ≤ 5 | ≤ 5 |  | Cc1cnc(-c2ccnc(Nc3ccc([N+](=O)[O-])cc3)n2)s1 [Example I-79]
28 | ≤ 5 | ≤ 5 |  | Cc1cnc(-c2ccnc(NC3CCCC3)n2)s1 [Example I-81]
29 | ≤ 5 | ≤ 5 |  | COc1cc(Nc2nccc(-c3ncc(CO)s3)n2)cc(C(F)(F)F)c1 [Example I-83]
30 |  | ≤ 5 | ≤ 5 | COc1cc(Nc2nccc(-c3nc(CO)cs3)n2)cc(C(F)(F)F)c1 [Example I-84]
31 | ≤ 5 | ≤ 5 |  | CCCc1cnc(-c2ccnc(Nc3cc(C)cc(C)c3)n2)s1 [Example I-85]
32 | ≤ 5 | ≤ 5 |  | Cc1cc(C)cc(Nc2nccc(-c3ncc(CN4CCC[C@H]4CO)s3)n2)c1 [Example I-86]
33 | ≤ 5 | ≤ 5 |  | Cc1cc(C)cc(Nc2nccc(-c3ncc(CN(C)CCO)s3)n2)c1 [Example I-87]
34 | ≤ 5 | ≤ 5 |  | Cc1cc(C)cc(Nc2nccc(-c3ncc(CNCCCO)s3)n2)c1 [Example I-88]
35 | ≤ 5 | ≤ 5 |  | Cc1cnc(-c2ccnc(Nc3cc(N)cc(C(F)(F)F)c3)n2)s1 [Example I-89]
36 | ≤ 5 | ≤ 5 |  | Cc1cnc(-c2ccnc(Nc3cccc(C#N)c3)n2)s1 [Example I-90]
37 | ≤ 5 | ≤ 5 |  | Cc1cnc(-c2ccnc(Nc3ccc(N4CCOCC4)cc3)n2)s1 [Example I-91]
38 | ≤ 5 | ≤ 5 |  | Cc1cnc(-c2ccnc(Nc3ccc(N(C)C)cc3)n2)s1 [Example I-92]
39 | ≤ 5 | ≤ 5 |  | Cc1cc(C)cc(Nc2nccc(-c3ncc(N4CCNCC4)s3)n2)c1 [Example I-93]
40 | ≤ 5 | ≤ 5 |  | Cc1cc(C)cc(Nc2nccc(-c3ncc(N(C)C)s3)n2)c1 [Example I-94]

Row | Ki (SYK; [1]) [µM] | Ki (ZAP-70) [µM] | Ki (SYK) [µM] | SMILES
41 | ≤ 5 | ≤ 5 |  | Cc1cnc(-c2ccnc(Nc3ccccc3Oc3ccccc3)n2)s1 [Example I-95]
42 | ≤ 5 | ≤ 5 |  | Cc1cnc(-c2ccnc(Nc3ccc(F)cc3F)n2)s1 [Example I-97]
43 | ≤ 5 | ≤ 5 |  | Cc1cnc(-c2ccnc(Nc3c(C)cccc3C)n2)s1 [Example I-100]
44 | ≤ 5 | ≤ 5 |  | Cc1cnc(-c2ccnc(Nc3ccc(O)c(C)c3)n2)s1 [Example I-102]
45 | ≤ 5 | ≤ 5 |  | CCCc1ccccc1Nc1nccc(-c2ncc(C)s2)n1 [Example I-103]
46 | ≤ 5 | ≤ 5 |  | COC(=O)c1ccc(Nc2nccc(-c3ncc(C)s3)n2)cc1C [Example I-106]
47 | ≤ 5 | ≤ 5 |  | Cc1cnc(-c2ccnc(Nc3cc(O)cc(C(F)(F)F)c3)n2)s1 [Example I-109]
48 | ≤ 5 | ≤ 5 |  | Cc1cnc(-c2ccnc(Nc3ccc(NC(=O)OC(C)(C)C)cc3)n2)s1 [Example I-110]
49 | ≤ 5 | ≤ 5 |  | Cc1cnc(-c2ccnc(Nc3cccc(CO)c3)n2)s1 [Example I-111]
50 | ≤ 5 | ≤ 5 |  | Cc1cnc(-c2ccnc(Nc3ccc4sc(C)nc4c3)n2)s1 [Example I-114]
51 | ≤ 5 | ≤ 5 |  | CNC(=O)c1cnc(-c2ccnc(Nc3cc(C)cc(C)c3)n2)s1 [Example I-115]
52 | ≤ 5 | ≤ 5 |  | CC(=O)c1ccc(Nc2nccc(-c3ncc(C)s3)n2)cc1 [Example I-116]
53 | ≤ 5 | ≤ 5 |  | Cc1cc(C)cc(Nc2nccc(-c3ncc(C(=O)O)s3)n2)c1 [Example I-118]
54 | ≤ 5 | ≤ 5 |  | Cc1cc(C)cc(Nc2nccc(-c3nc(C)c(CCOC4CCCCO4)s3)n2)c1 (stereo not shown) [Example I-119]
55 | ≤ 5 | ≤ 5 |  | Cc1cnc(-c2ccnc(Nc3ccc(C(C)(C)C)cc3)n2)s1 [Example I-120]
56 | ≤ 5 | ≤ 5 |  | COC(=O)c1cc(Nc2nccc(-c3ncc(C)s3)n2)cc(C(=O)OC)c1 [Example I-121]
